In patent US20240327415A1, “Multicomponent Complexes, Including Salts, Crystalline Forms, and Hydrates and Solvates of ENT1 Inhibitors” (iTeos Belgium SA, priority 2023, published 2024):
Values after ≈ are worked out from the molar mass of the structure shown. Like-named read-outs stand apart in the source and are kept apart here. Blank lines part the entries; values can stand above or below the compound they belong to.

Legend:
Assay type in all cases: physicochemical
[1] = pH solubility studies in buffers and biorelevant media (Example 16); settings: for solubility at 24 h: thermodynamic from solid
Protocol: Example 16—pH Solubility Studies—(1) Crystalline Form 2 Compound 1 di(hydrogen sulfate) trihydrate, (2) Crystalline Form 3 Compound 1 di(hydrogen sulfate), and (3) Crystalline Form 4 Compound 1 mono(hydrogen sulfate): pH solubility studies were carried out on the prepared crystalline Form 2 Compound 1 di(hydrogen sulfate) trihydrate, crystalline Form 3 Compound 1 di(hydrogen sulfate) and crystalline Form 4 Compound 1 mono(hydrogen sulfate) in the following media: (1) HCl/KCl, pH 1.2; (2) Acetate, pH 4.5; (3) Phosphate, pH 6.8; (4) FaSSIF; (5) FeSSIF; and (6) FaSSGF. Slurries of the hydrogen sulfate forms were prepared in the appropriate medium and stirred at 25° C. For the experiments in the buffer media, the pH of the slurry samples was measured and adjusted as required after 1 hour and 23 hours of the slurrying. Additional solid was added where dissolution was observed post-adjustment. The pH of the samples in the biorelevant media was measured at the 23 hour timepoint. No pH adjustment was made for the biorelevant media. After a total of 24 hours of slurrying, the mother liquors were extracted via centrifugation, and the concentrations and solution purity were determined by HPLC. The residual solids were isolated and analyzed by XRPD and are shown in FIG. 77, FIG. 78, and FIG. 79. The assessment was repeated for some of the samples, where required.

[2] = Dynamic Vapor Sorption (DVS)
Protocol: (§1) METHOD A: In Example 11, approximately 5-15 mg of sample was placed into a mesh vapor sorption balance pan and loaded into either a DVS Intrinsic or DVS Advantage dynamic vapor sorption balance by Surface Measurement Systems. The sample was subjected to a ramping profile from 40-90% relative humidity (RH) at 10% increments, maintaining the sample at each step until a stable weight had been achieved (dm/dt 0.004%, minimum step length 30 minutes, maximum step length 500 minutes) at 25° C. After completion of the sorption cycle, the sample was dried using the same procedure to 0% RH and then a second sorption cycle back to 40% RH was carried out. Two cycles were performed. The weight change during the sorption/desorption cycles were plotted, allowing the hygroscopic nature of the sample to be determined. XRPD analysis was then carried out on the residual solid.
as §1, with “B:” for “A:”, “Examples 2A, 3, 14, and 17,” for “Example 11,”, “10-20” for “5-15”, “determined.” for “determined. XRPD analysis was then carried out on the residual solid.”
as §1, with “Approximately 10-20” for “METHOD A: In Example 11, approximately 5-15”, “RH” for “relative humidity (RH)”, “min,” for “minutes,”, “min)” for “minutes)”, “determined.” for “determined. XRPD analysis was then carried out on the residual solid.”

[3] = Variable Temperature X-Ray Powder Diffraction (VT-XRPD)
Protocol: (§2) In the examples below, VT-XRPD analysis was carried out on a Philips X'Pert Pro Multipurpose diffractometer equipped with a temperature chamber. The samples were scanned between 4 and 36° 2θ using Cu K radiation (α1 λ=1.54060 Å; α2=1.54443 Å; β=1.39225 Å; α1: α2 ratio=0.5; most, if not all, B radiation is removed from the beam using an X-ray mirror) running in Bragg-Brentano geometry (step size 0.008° 2θ) using 40 kV/40 mA generator settings. Measurements were carried out from ambient temperature to an upper limit of 250° C., with a final measurement taken after cooling.
as §2, with “VT-XRPD” for “In the examples below, VT-XRPD”, “Å; β2=1.39225” for “Å; β=1.39225”, “Å; α1:α2” for “Å; α1: α2”, “all, β” for “all, B”

[4] = Karl Fischer coulometric titration (water content)
Protocol: In the examples below, KF titration measured using either an In Motion KF Autosampler or Direct Addition Method. The In Motion KF Autosampler was carried out via the following procedure. 15-20 mg of solid was weighed into a 10 mL glass vial and tightly sealed with a screw cap. Samples were analyzed using a Mettler Toledo C30SX and an InMotion KFOven Autosampler at 130° C. Samples were analyzed in duplicate and an average moisture content reported. See table below for further details.
The Direct Addition Method was carried out via the following procedure. 15-20 mg of solid material was accurately weighed into a vial. The solid was then manually introduced into the titration cell of a Mettler Toledo C30 Compact Titrator. The vial was back-weighed after the addition of the solid and the weight of the added solid entered on the instrument. Titration was initiated once the sample had fully dissolved in the cell. The water content was calculated automatically by the instrument as a percentage and the data printed.

[5] = after 24 hours slurrying in the media (Form 2: all samples except pH 4.5 Attempt 1)
[6] = FaSSGF, 25° C., 24 h, pH after 24 h 1.98
[7] = FaSSIF, 25° C., 24 h, pH after 24 h 3.93
[8] = FeSSIF, 25° C., 24 h, pH after 24 h 4.34
[9] = pH 1.2 (HCl/KCl), 25° C., 24 h, pH after 24 h 1.57→1.33
[10] = pH 4.5 (Acetate), 25° C., 24 h, pH after 24 h 4.43
[11] = pH 6.8 (Phosphate), 25° C., 24 h, pH after 24 h 5.19→6.94

ML purity ([1]; FaSSGF, 25° C., 24 h, pH after 24 h 0.93): 99.67 % area | solubility at 24 h ([1]; FaSSGF, 25 °C, pH 0.93, fassgf or other biorelevant, FaSSGF, 25° C., 24 h, pH after 24 h 0.93, read-out: Solub.): 81.1 mg/mL (≈ 128 mM) | ML purity ([1]; FaSSIF, 25° C., 24 h, pH after 24 h 1.12): 99.80 % area | solubility at 24 h ([1]; FaSSIF, 25 °C, pH 1.12, fassif, FaSSIF, 25° C., 24 h, pH after 24 h 1.12, read-out: Solub.): 76.6 mg/mL (≈ 121 mM) | ML purity ([1]; FeSSIF, 25° C., 24 h, pH after 24 h 1.07): 99.72 % area | solubility at 24 h ([1]; FeSSIF, 25 °C, pH 1.07, fessif, FeSSIF, 25° C., 24 h, pH after 24 h 1.07, read-out: Solub.): 133 mg/mL (≈ 211 mM) | solubility at 24 h ([1]; HCl/KCl buffer, 25 °C, pH 1.2, simulated gastric fluid, pH 1.2 (HCl/KCl), attempt 1, 25° C., 24 h, pH after 24 h 0.98→1.22, read-out: Solub.): > 86.7 mg/mL | solubility at 24 h ([1]; acetate buffer pH 4.5, 25 °C, pH 4.5, aqueous buffer, pH 4.5 buffer media, Attempt 1, 25° C., 24 hours, read-out: solubility): < 20 mg/mL | solubility at 24 h ([1]; acetate buffer, 25 °C, pH 4.5, aqueous buffer, pH 4.5 (Acetate), attempt 1, 25° C., 24 h, pH after 24 h 4.53, read-out: Solub.): 17.8 mg/mL (≈ 28.2 mM) | solubility at 24 h ([1]; acetate buffer, 25 °C, pH 4.5, aqueous buffer, pH 4.5 (Acetate), attempt 2, 25° C., 24 h, pH after 24 h 1.68→4.62, read-out: Solub.): 94.5 mg/mL (≈ 150 mM) | solution purity of the extracted mother liquors [1, 5]: > 99 % area | solubility at 24 h ([1]; buffers and biorelevant media, 25 °C, pH 1.2, aqueous buffer, pH 1.2 and 4.5 buffers and all the biorelevant media, slurry 25° C., 24 hours, read-out: solubility): > 75 mg/mL | pH solubility ([1]; pH 1.2): pH 1.2: >87 mg/mL | pH solubility: residual solid ([1]; pH 1.2): mg/mL, no solid | ML purity ([1]; pH 1.2 (HCl/KCl), attempt 1, 25° C., 24 h, pH after 24 h 0.98→1.22): 99.13 % area | pH solubility ([1]; pH 4.5): pH 4.5: 95 mg/mL | pH solubility: residual solid ([1]; pH 4.5): mg/mL, Form 4 | ML purity ([1]; pH 4.5 (Acetate), attempt 1, 25° C., 24 h, pH after 24 h 4.53): 89.50 % area | ML purity ([1]; pH 4.5 (Acetate), attempt 2, 25° C., 24 h, pH after 24 h 1.68→4.62): 99.76 % area | solution purity of the extracted mother liquors ([1]; pH 4.5 Attempt 1): 89 % area | pH solubility ([1]; pH 6.8): pH 6.8: 12 mg/mL | pH solubility: residual solid ([1]; pH 6.8): mg/mL, Gum | ML purity ([1]; pH 6.8 (Phosphate), attempt 1, 25° C., 24 h, pH after 24 h 1.01→6.87): 99.43 % area | solubility at 24 h ([1]; phosphate buffer, 25 °C, pH 6.8, aqueous buffer, pH 6.8 (Phosphate), attempt 1, 25° C., 24 h, pH after 24 h 1.01→6.87, read-out: Solub.): 12 mg/mL (≈ 19 mM) | solubility at 24 h ([1]; phosphate buffer, 25 °C, pH 6.8, aqueous buffer, pH 6.8 (Phosphate), attempt 2, 25° C., 24 h, pH after 24 h 4.79→6.90, read-out: Solub.): 6.1 mg/mL (≈ 9.66 mM) | DVS: Dehydrates [2]: Dehydrates <15% RH | DVS uptake ([2]; at 80% RH): 8.0% uptake at | moisture uptake (DVS) ([2]; between 0-10% RH, 25° C.): about 6.3% | moisture uptake (DVS) ([2]; between 10-80% RH, 25° C.): 1.7% | VT-XRPD: Conv. To Form 5 at [3]: at 80-130 °C | VT-XRPD: Melt from [3]: Melt from 150 °C | VT-XRPD: input form retained at [3]: at 30-50 °C | KF moisture content [4]: 6.74% moisture
SMILES: CCCN1CCNCCCNC(=O)c2cc(OC)c(OC)c(c2)OCCC[C@@H](OC(=O)c2cc(OC)c(OC)c(OC)c2)CC1

SMILES: COc1cc(C(=O)O[C@@H]2CCCOc3cc(cc(OC)c3OC)C(=O)NCCCN3CCCN(CC2)CC3)cc(OC)c1OC.O=S(=O)(O)O
ML purity [1, 6]: 99.82 % area | Solub. [1, 6]: 36.7 mg/mL | ML purity [1, 7]: 99.86 % area | Solub. [1, 7]: 44.9 mg/mL | ML purity [1, 8]: 99.69 % area | Solub. [1, 8]: 124.2 mg/mL | solution purity of the extracted mother liquors [1, 5]: > 98 % area | pH solubility ([1]; pH 1.2): pH 1.2: 134 mg/mL | pH solubility: residual solid ([1]; pH 1.2): mg/mL, Form 4 | ML purity [1, 9]: >99.99 % area | Solub. [1, 9]: 134.1 mg/mL | solubility ([1]; pH 1.2 and FeSSIF media, 25° C., 24 hours): > 100 mg/mL | pH solubility ([1]; pH 4.5): pH 4.5: 47 mg/mL | pH solubility: residual solid ([1]; pH 4.5): mg/mL, Form 4 | ML purity [1, 10]: 99.86 % area | Solub. [1, 10]: 46.9 mg/mL | pH solubility ([1]; pH 6.8): pH 6.8: 62 mg/mL | pH solubility: residual solid ([1]; pH 6.8): mg/mL, Gum | ML purity [1, 11]: 98.30 % area | Solub. [1, 11]: 62.0 mg/mL | solubility ([1]; the other media assessed, 25° C., 24 hours): 30 to 80 mg/mL | post-DVS sample (XRPD / appearance) ([2]; DVS at 25° C.): conversion to crystalline Form 8 Compound 1 mono(hydrogen sulfate) | DVS: Conversion to (solid form) ([2]; after DVS at 40% RH): Form 8 after | DVS loss ([2]; at 20-30% RH (desorption)): 8.0% loss at | DVS uptake ([2]; at 40-50% RH (2nd sorption)): 8.1% uptake at | moisture loss (DVS) ([2]; between 20-30% RH): ca. 8.0% | moisture uptake (DVS) ([2]; between 40-40% RH during the sorption cycles): ca. 4.9% | moisture uptake (DVS) ([2]; between 40-50% RH): 8.1% | moisture uptake (DVS) ([2]; between 50-80% RH): ca. 2.2% | VT-XRPD: Conv. To Form 8 at [3]: at 40-70 °C | VT-XRPD: Conversion to amorph. At [3]: amorph. At ≥90 °C | temperature above which the sample turned amorphous [3]: greater than 90 °C | temperature range of conversion to crystalline Form 8 Compound 1 mono(hydrogen sulfate) [3]: 40-70 °C | KF moisture content [4]: 14.87% moisture
